# Data reported in US8211935B2, “Heterocyclic derivatives for modulation of calcium channels” (Vertex Pharmaceuticals Incorporated, priority 2004, dated 2012).
# Where two headings read alike, the source gives them in different places.
# Target: T1, CaV2.2 (Homo sapiens, UniProt Q00975)
# T1 construct: expressed in transfected cells; host or cells: HEK293
# Assay: VIPR optical membrane potential assay with electrical stimulation
# Format: cell-based
# Protocol: Antagonist properties of test compounds were assessed as follows. Cells expressing the CaV of interest were placed into microtiter plates. After an incubation period, the cells were stained with fluorescent dyes sensitive to the transmembrane potential. The test compounds were added to the microtiter plate. The cells were stimulated with electrical means to evoke a CaV dependent membrane potential change from unblocked channels, which was detected and measured with trans-membrane potential-sensitive dyes. Antagonists were detected as a decreased membrane potential response to the stimulus.
# VIPR® Optical Membrane Potential Assay Method with Electrical Stimulation
# The following is an example of how CaV2.2 inhibition activity is measured using the optical membrane potential method. Other subtypes are performed in an analogous mode in a cell line expressing the CaV of interest.
# HEK293 cells stably expressing CaV2.2 are plated into 96-well microtiter plates. After an appropriate incubation period, the cells are stained with the voltage sensitive dyes CC2-DMPE/DiSBAC2(3) as follows.
# 2×CC2-DMPE=20 μM CC2-DMPE: 10 mM CC2-DMPE is vortexed with an equivalent volume of 10% Pluronic, followed by vortexing in required amount of HBSS containing 10 mM HEPES. Each cell plate will require 5 mL of 2×CC2-DMPE. 50 μL of 2×CC2-DMPE is added to wells containing washed cells, resulting in a 10 μM final staining concentration. The cells are stained for 30 minutes in the dark at RT.
# Vortex in required amount of Bath X with beta-cyclodextrin. Each 96 well cell plate will require 5 ml of 2×CC2DMPE. Wash plate with ELx405 with Bath X, leaving a residual volume of 50 μL/well. Add 50 μL of 2×CC2DMPE & DISBAC6(3) to each well. Stain for 30 minutes in the dark at RT.
# Allow solution to sit for 10 minutes. Slowly mix in 370 mM BaCl2. This solution can be used to solvate compound plates. Note that compound plates are made at 1.5× drug concentration and not the usual 2×. Wash CC2 stained plate, again, leaving residual volume of 50 pt. Add 100 uL/well of the AY17 solution. Stain for 15 minutes in the dark at RT. Run plate on the optical reader.
# The instrument comprises a microtiter plate handler, an optical system for exciting the coumarin dye while simultaneously recording the coumarin and oxonol emissions, a waveform generator, a current- or voltage-controlled amplifier, and a device for inserting electrodes in well. Under integrated computer control, this instrument passes user-programmed electrical stimulus protocols to cells within the wells of the microtiter plate.
# Insert or use electrodes into each well to be assayed.
# Use the current-controlled amplifier to deliver stimulation wave pulses for 3-5 s. Two seconds of pre-stimulus recording are performed to obtain the un-stimulated intensities. Five seconds of post-stimulation recording are performed to examine the relaxation to the resting state.
# Data are analyzed and reported as normalized ratios of background-subtracted emission intensities measured in the 460 nm and 580 nm channels. Background intensities are then subtracted from each assay channel. Background intensities are obtained by measuring the emission intensities during the same time periods from identically treated assay wells in which there are no cells. The response as a function of time is then reported as the ratios obtained using the following formula: […]
# The data is further reduced by calculating the initial (Ri) and final (Rf) ratios. These are the average ratio values during part or all of the pre-stimulation period, and during sample points during the stimulation period. The response to the stimulus R=Rf/Ri is then calculated.
# Control responses are obtained by performing assays in the presence of a compound with the desired properties (positive control), such as mibefradil, and in the absence of pharmacological agents (negative control). Responses to the negative (N) and positive (P) controls are calculated as above.
# [1] = Table 3, biological assay data, read-out: IC50
# T1 sequence (Q00975 whole entry): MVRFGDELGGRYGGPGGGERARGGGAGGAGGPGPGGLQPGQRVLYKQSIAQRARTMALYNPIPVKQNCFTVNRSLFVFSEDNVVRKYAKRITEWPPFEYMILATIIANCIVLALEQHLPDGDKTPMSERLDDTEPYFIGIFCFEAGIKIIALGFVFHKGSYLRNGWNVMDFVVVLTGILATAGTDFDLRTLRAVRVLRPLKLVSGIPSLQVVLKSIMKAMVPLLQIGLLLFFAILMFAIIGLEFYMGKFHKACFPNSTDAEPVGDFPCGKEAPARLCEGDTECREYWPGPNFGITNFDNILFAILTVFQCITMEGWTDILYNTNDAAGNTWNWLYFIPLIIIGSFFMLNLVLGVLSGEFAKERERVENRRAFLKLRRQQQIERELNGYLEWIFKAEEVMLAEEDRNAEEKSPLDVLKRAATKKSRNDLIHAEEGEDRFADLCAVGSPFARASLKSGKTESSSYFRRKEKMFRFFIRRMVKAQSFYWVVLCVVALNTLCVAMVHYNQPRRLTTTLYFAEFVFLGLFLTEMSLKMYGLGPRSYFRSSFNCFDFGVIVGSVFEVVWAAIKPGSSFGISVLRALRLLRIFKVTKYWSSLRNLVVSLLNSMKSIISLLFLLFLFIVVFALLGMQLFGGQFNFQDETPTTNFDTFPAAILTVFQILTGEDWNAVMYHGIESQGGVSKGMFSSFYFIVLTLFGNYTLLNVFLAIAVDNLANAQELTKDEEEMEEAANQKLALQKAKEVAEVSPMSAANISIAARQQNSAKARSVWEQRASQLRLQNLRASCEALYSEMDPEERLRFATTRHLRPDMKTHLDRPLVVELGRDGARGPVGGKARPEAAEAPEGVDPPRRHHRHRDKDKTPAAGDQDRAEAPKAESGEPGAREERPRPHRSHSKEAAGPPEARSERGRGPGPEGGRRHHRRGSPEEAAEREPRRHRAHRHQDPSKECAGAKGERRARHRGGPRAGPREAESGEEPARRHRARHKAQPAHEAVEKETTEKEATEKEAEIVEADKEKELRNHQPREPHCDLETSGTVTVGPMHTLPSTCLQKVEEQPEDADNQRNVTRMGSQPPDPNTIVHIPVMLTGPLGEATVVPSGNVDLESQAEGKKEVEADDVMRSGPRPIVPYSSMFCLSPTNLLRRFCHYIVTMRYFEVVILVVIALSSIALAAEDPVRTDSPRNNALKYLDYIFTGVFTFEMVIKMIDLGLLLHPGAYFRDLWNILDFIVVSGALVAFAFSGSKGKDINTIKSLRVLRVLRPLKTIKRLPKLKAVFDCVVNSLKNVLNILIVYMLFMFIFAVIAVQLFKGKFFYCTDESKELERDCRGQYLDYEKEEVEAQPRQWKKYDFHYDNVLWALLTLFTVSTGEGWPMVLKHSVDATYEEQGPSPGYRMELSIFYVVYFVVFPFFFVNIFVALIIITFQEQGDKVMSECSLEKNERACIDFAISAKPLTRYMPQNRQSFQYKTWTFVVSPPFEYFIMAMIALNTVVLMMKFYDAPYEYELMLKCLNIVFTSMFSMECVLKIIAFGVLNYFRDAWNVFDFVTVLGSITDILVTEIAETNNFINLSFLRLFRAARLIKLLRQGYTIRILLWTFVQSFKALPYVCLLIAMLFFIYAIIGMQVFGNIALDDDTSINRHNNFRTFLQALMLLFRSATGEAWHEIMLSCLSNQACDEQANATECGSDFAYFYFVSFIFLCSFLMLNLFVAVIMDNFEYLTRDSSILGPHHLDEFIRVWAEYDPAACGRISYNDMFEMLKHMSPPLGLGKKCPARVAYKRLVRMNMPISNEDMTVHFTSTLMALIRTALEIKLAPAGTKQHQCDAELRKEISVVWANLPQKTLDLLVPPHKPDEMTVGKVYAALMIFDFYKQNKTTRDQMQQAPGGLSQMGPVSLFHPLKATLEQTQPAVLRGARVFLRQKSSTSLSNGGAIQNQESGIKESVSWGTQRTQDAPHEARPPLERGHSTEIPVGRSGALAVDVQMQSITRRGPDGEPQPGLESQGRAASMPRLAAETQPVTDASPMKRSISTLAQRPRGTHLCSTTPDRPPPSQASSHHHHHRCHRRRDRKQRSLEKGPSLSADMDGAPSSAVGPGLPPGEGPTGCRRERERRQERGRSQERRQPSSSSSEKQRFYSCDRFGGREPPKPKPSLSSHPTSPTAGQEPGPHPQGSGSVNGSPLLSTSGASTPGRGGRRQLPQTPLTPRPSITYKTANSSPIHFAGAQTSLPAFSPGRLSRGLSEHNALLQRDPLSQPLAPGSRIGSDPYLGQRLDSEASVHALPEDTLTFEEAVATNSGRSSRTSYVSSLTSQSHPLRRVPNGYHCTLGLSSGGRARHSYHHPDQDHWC
# T1 sequence (P54284 whole entry partner): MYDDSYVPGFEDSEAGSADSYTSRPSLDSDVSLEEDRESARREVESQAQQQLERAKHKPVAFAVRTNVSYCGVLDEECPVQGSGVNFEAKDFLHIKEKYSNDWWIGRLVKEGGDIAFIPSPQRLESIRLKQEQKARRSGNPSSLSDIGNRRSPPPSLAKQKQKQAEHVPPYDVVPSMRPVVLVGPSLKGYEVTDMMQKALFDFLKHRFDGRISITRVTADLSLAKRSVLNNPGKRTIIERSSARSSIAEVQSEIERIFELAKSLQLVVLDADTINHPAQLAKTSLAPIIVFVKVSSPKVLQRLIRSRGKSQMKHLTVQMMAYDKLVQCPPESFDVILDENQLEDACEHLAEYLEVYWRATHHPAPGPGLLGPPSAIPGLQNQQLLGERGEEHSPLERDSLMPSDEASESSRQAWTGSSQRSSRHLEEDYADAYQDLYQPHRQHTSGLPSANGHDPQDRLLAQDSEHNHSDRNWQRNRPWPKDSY
# T1 sequence (P54289 25-946 partner limits assumed): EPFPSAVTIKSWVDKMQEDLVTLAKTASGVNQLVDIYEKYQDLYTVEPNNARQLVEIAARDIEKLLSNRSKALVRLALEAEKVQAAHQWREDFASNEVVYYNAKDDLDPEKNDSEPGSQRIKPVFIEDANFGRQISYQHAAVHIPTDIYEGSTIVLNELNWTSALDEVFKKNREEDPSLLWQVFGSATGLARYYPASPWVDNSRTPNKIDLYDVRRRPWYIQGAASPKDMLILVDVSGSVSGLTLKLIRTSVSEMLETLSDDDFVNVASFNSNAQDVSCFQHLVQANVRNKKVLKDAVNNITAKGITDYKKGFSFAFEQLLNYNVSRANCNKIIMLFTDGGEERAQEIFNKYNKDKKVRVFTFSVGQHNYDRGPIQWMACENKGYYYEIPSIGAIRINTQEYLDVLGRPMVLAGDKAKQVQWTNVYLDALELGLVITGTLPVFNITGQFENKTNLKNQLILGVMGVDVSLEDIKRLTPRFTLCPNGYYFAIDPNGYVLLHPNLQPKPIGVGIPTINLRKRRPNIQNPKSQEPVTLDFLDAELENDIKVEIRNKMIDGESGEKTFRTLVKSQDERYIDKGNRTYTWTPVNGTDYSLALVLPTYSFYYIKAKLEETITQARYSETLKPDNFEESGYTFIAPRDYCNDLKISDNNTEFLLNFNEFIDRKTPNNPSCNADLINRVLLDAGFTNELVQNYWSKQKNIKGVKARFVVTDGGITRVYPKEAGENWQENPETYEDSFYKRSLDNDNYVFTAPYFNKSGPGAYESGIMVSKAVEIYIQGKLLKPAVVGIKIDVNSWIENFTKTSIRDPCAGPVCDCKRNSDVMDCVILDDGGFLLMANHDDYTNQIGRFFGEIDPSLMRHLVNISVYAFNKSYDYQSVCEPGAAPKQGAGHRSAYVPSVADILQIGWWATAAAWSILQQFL
# T1 sequence (P54289 947-1103 partner limits assumed): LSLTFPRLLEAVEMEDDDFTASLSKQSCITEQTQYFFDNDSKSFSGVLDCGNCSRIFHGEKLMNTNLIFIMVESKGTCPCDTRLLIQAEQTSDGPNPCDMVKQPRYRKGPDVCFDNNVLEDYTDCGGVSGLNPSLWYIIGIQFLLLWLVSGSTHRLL
Structure (SMILES),IC50 [1],IC50
Cc1c(C(=O)N2CCCCC2C)oc2ccc(S(=O)(=O)N3CCCC(C)C3)cc12 (centres unmarked) [compound 61],5 to 20 µM,
Cc1c(C(=O)NC2CCCCC2)oc2ccc(S(=O)(=O)N3CC(C)CC(C)C3)cc12 (centres unmarked) [compound 62],< 5 µM,
Cc1c(C(=O)NCc2cccnc2)oc2ccc(S(=O)(=O)N3CC(C)CC(C)C3)cc12 (centres unmarked) [compound 63],5 to 20 µM,
Cc1c(C(=O)N2CCCCC2)oc2ccc(S(=O)(=O)N3CCCCC3)cc12 [compound 64],5 to 20 µM,
Cc1c(C(=O)N2CCCCC2)oc2ccc(S(=O)(=O)N3CCOCC3)cc12 [compound 65],< 20 µM,
O=C(NC1CC1)c1cc2cc(N(Cc3ccccc3)S(=O)(=O)c3ccccc3)ccc2[nH]1 [compound 66],5 to 20 µM,
CC(C)N(C(=O)c1cc2cc(S(=O)(=O)N3CCCCCC3)ccc2o1)C(C)C [compound 67],< 5 µM,
Cc1c(C(=O)NCC2CCCO2)[nH]c2ccc(S(=O)(=O)N3CCCCCC3)cc12 (centres unmarked) [compound 68],5 to 20 µM,
Cc1c(C(=O)N2CCCCC2)[nH]c2ccc(S(=O)(=O)N3CCCCCC3)cc12 [compound 69],5 to 20 µM,
CCN1CCN(C(=O)c2oc3ccc(S(=O)(=O)N4CCCCCC4)cc3c2C)CC1 [compound 70],5 to 20 µM,
O=C(NC1CC1)c1cc2cc(NS(=O)(=O)C3CC3)ccc2[nH]1 [compound 71],< 20 µM,
CCOC(=O)N1CCN(C(=O)c2cc3cc(S(=O)(=O)N4CCCCCC4)ccc3[nH]2)CC1 [compound 72],5 to 20 µM,
Cc1c(C(=O)NCc2ccccn2)oc2ccc(S(=O)(=O)N3CC(C)CC(C)C3)cc12 (centres unmarked) [compound 73],< 20 µM,
Cc1c(C(=O)N2CCCCC2)[nH]c2ccc(S(=O)(=O)N3CCC(C)CC3)cc12 [compound 74],< 5 µM,
Cc1c(C(=O)NC2CCCCC2)oc2ccc(S(=O)(=O)N3CCOCC3)cc12 [compound 75],< 20 µM,
COc1ccccc1CNC(=O)c1oc2ccc(S(=O)(=O)N3CCCCC3)cc2c1C [compound 76],5 to 20 µM,
CCNC(=O)c1cc2cc(S(=O)(=O)N3CCCCCC3)ccc2[nH]1 [compound 77],< 5 µM,
Cc1c(C(=O)NCCC2CCOCC2)[nH]c2ccc(S(=O)(=O)N3CC(C)CC(C)C3)cc12 (centres unmarked) [compound 78],5 to 20 µM,
Cc1c(C(=O)NCCCN2CCOCC2)oc2ccc(S(=O)(=O)N3CC(C)CC(C)C3)cc12 (centres unmarked) [compound 79],< 5 µM,
Cc1c(C(=O)NCC2CCCCC2)oc2ccc(S(=O)(=O)N3CCC(C)CC3)cc12 [compound 80],5 to 20 µM,
Cc1c(C(=O)N2CCCC(C)C2)[nH]c2ccc(S(=O)(=O)N3CCC(C)CC3)cc12 (centres unmarked) [compound 81],< 5 µM,

Structure (SMILES),IC50 [1],IC50
CC1CC(C)CN(S(=O)(=O)c2ccc3oc(C(=O)N4CCN(C)CC4)cc3c2)C1 (centres unmarked) [compound 82],5 to 20 µM,
CCCCN(C)C(=O)c1cc2cc(S(=O)(=O)N3CCC(C)CC3)ccc2o1 [compound 83],< 5 µM,
CCOC(=O)N1CCN(C(=O)c2cc3cc(S(=O)(=O)N4CCC(C)CC4)ccc3[nH]2)CC1 [compound 84],< 5 µM,
CCN(CC)S(=O)(=O)c1ccc2oc(C(=O)N3CCc4ccccc4C3)c(C)c2c1 [compound 85],< 5 µM,
Cc1ccc(CNC(=O)c2oc3ccc(S(=O)(=O)N4CCCC4)cc3c2C)cc1 [compound 86],5 to 20 µM,
CCN(CC)S(=O)(=O)c1ccc2oc(C(=O)NC3CCCC3)c(C)c2c1 [compound 87],< 5 µM,
CCOC(=O)N1CCN(C(=O)c2oc3ccc(S(=O)(=O)N4CCC(C)CC4)cc3c2C)CC1 [compound 88],< 5 µM,
Cc1c(C(=O)N(C)Cc2ccccc2)oc2ccc(S(=O)(=O)N3CC(C)CC(C)C3)cc12 (centres unmarked) [compound 89],,< 5 µM
CC1CCN(S(=O)(=O)c2ccc3oc(C(=O)NCCCc4ccccc4)cc3c2)CC1 [compound 90],< 5 µM,
CC1CC(C)CN(S(=O)(=O)c2ccc3[nH]c(C(=O)N4CCN(C)CC4)cc3c2)C1 (centres unmarked) [compound 91],5 to 20 µM,
CCN(CC)C(=O)c1oc2ccc(S(=O)(=O)N3CCCCCC3)cc2c1C [compound 92],5 to 20 µM,
Cc1c(C(=O)N(C)Cc2ccccc2)oc2ccc(S(=O)(=O)N3CCCCC3)cc12 [compound 93],< 5 µM,
Cc1c(C(=O)NCCCc2ccccc2)oc2ccc(S(=O)(=O)N3CCCCCC3)cc12 [compound 94],5 to 20 µM,
CCCCN(C)C(=O)c1oc2ccc(S(=O)(=O)N(CC)CC)cc2c1C [compound 95],5 to 20 µM,
O=C(c1cc2cc(S(=O)(=O)N3CCCCCC3)ccc2o1)N1CCCCC1 [compound 96],5 to 20 µM,
CC1CCN(S(=O)(=O)c2ccc3oc(C(=O)NCCc4ccccc4)cc3c2)CC1 [compound 97],5 to 20 µM,
CC1CCN(S(=O)(=O)c2ccc3[nH]c(C(=O)NCCCc4ccccc4)cc3c2)CC1 [compound 98],< 5 µM,
CC1CC(C)CN(S(=O)(=O)c2ccc3oc(C(=O)N4CCCCC4)cc3c2)C1 (centres unmarked) [compound 100],< 5 µM,
CC1CCN(S(=O)(=O)c2ccc3[nH]c(C(=O)N4CCCC(C)C4)cc3c2)CC1 (centres unmarked) [compound 101],< 5 µM,
Cc1c(C(=O)N2CCCC(C)C2)oc2ccc(S(=O)(=O)N3CCCCCC3)cc12 (centres unmarked) [compound 102],< 5 µM,
Cc1c(C(=O)N2CCC(C)CC2)[nH]c2ccc(S(=O)(=O)N3CC(C)CC(C)C3)cc12 (centres unmarked) [compound 103],< 5 µM,

Structure (SMILES),IC50 [1],IC50
CC1CCN(S(=O)(=O)c2ccc3[nH]c(C(=O)N4CCCC4)cc3c2)CC1 [compound 104],5 to 20 µM,
O=C(NC1CC1)c1cc2cc(N(CC3CC3)S(=O)(=O)c3ccccc3)ccc2[nH]1 [compound 105],5 to 20 µM,
CC1CCN(S(=O)(=O)c2ccc3oc(C(=O)N4CCC5(CC4)OCCO5)cc3c2)CC1 [compound 106],,< 20 µM
CC1CC(C)CN(S(=O)(=O)c2ccc3c(c2)cc(C(=O)N2CCCCC2)n3S(=O)(=O)c2ccc(F)cc2)C1 (centres unmarked) [compound 107],< 5 µM,
CC1CCN(S(=O)(=O)c2ccc3[nH]c(CNC4CC4)cc3c2)CC1 [compound 108],< 5 µM,
Cc1c(C(=O)NC2CCCc3ccccc32)oc2ccc(S(=O)(=O)N3CCOCC3)cc12 (centres unmarked) [compound 109],< 20 µM,
Cc1c(C(=O)NC(C)C)oc2ccc(S(=O)(=O)N3CCCCCC3)cc12 [compound 110],5 to 20 µM,
CC1CCN(S(=O)(=O)c2ccc3oc(C(=O)NCC4CCOCC4)cc3c2)CC1 [compound 111],5 to 20 µM,
CCN(CC)S(=O)(=O)c1ccc2oc(C(=O)N3CCCCC3C)c(C)c2c1 (centres unmarked) [compound 112],5 to 20 µM,
CCCCN(C)C(=O)c1cc2cc(S(=O)(=O)N3CCCCCC3)ccc2o1 [compound 113],< 5 µM,
Cc1c(C(=O)NCCN2CCOCC2)oc2ccc(S(=O)(=O)N3CCCCCC3)cc12 [compound 114],5 to 20 µM,
COc1ccc(NS(=O)(=O)c2ccc3oc(C(=O)NC4CC4)c(C)c3c2)cc1 [compound 115],5 to 20 µM,
Cc1c(C(=O)NC(C)C)[nH]c2ccc(S(=O)(=O)N3CCC(C)CC3)cc12 [compound 116],5 to 20 µM,
CCCCN(C)C(=O)c1[nH]c2ccc(S(=O)(=O)N3CCC(C)CC3)cc2c1C [compound 117],< 5 µM,
Cc1c(C(=O)NCc2ccccc2)oc2ccc(S(=O)(=O)N3CCC4(CC3)OCCO4)cc12 [compound 118],< 20 µM,
CC1CCN(S(=O)(=O)c2ccc3oc(C(=O)NC4CCCC4)cc3c2)CC1 [compound 119],< 5 µM,
Cc1c(C(=O)NCc2ccccc2)[nH]c2ccc(S(=O)(=O)N3CCC(C)CC3)cc12 [compound 120],< 5 µM,
CC1CCN(S(=O)(=O)c2ccc3[nH]c(CN4CCN(C)CC4)cc3c2)CC1 [compound 121],5 to 20 µM,
CC1CC(C)CN(S(=O)(=O)c2ccc3oc(C(=O)NC4CCCC4)cc3c2)C1 (centres unmarked) [compound 122],< 5 µM,
Cc1c(C(=O)NC2CCCCC2C)oc2ccc(S(=O)(=O)N3CCOCC3)cc12 (centres unmarked) [compound 123],5 to 20 µM,
